# Results taken from US20260124213A1, “STAPHYLOCOCCUS AUREUS PBP4 INHIBITORS AND METHOD OF USE” (UNIVERSITY OF ROCHESTER, priority 2022, published 2026).
# Values joined by “and” are separate entries in the source; they are usually repeats but may differ in a detail not shown here. Identical values can stand only once.
# Key:
# strain CRBΔpbp4 = test: microbe, parasite or virus in culture; format: cell-based, Staphylococcus aureus; settings: CRBΔpbp4
# [1] = target: recombinant B. subtilis PBP4 (Bacillus subtilis, UniProt P40750); test: BOCILLIN FL fluorescence polarization binding competition; settings: compound 50 μM; Ex. 3 series
# Sequence of recombinant B. subtilis PBP4 (P40750 22-624): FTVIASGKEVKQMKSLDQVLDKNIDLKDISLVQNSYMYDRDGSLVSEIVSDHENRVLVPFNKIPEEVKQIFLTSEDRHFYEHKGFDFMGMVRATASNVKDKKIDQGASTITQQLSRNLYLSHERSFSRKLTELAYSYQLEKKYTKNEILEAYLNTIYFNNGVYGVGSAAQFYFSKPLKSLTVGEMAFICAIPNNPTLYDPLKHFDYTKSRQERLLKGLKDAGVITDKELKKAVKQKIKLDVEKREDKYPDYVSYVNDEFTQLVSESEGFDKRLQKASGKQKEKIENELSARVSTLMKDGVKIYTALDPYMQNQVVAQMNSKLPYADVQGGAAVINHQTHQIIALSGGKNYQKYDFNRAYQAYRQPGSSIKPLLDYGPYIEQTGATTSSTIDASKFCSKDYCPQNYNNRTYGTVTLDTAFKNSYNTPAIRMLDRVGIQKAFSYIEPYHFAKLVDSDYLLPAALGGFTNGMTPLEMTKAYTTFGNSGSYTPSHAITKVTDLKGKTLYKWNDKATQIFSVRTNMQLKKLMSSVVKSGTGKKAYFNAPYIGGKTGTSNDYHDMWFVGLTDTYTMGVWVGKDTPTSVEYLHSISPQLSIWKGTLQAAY
# Method: PBP4 BOCILLIN™ FL Binding Competition Assays. The ability of putative PBP4 inhibitors to impact the active site of recombinant PBP4 was assessed using two previously established BOCILLIN™-FL Penicillin (Penicillin V conjugated to BODIPY fluorescent dye) binding assays. First, fluorescence polarization assays were performed as previously described. Briefly, the indicated amount of the putative PBP4 inhibitor or control antibiotic was incubated with 1 μM recombinant B. subtilis PBP4 or S. aureus PBP2a in potassium phosphate buffer (40 mM K2HPO4 and 10 mM KH2PO4) for 1 hour in black 96-well microtiter plates (Corning Life Sciences®, Corning, NY). Following incubation, 1 μM (final concentration) BOCILLIN™ FL penicillin was added, and the mixture was incubated for 30 minutes. BOCILLIN™ FL fluorescence polarization was measured at (495nm excitation and 545nm emission) in a SpectraMax® M5 multimode plate reader (Molecular Devices®, San Jose, CA). All assays were repeated at least 8 times, averaged, and values falling outside of 2 standard deviations were considered outliers. Resulting data was plotted as percentage BOCILLIN™ FL binding inhibition=(T/U)×100; T=FL polarization of ((PBP4+BOCILLIN™ FL)−(PBP4+BOCILLIN™ FL+inhibitor compound)), U=FL polarization of ((PBP4+BOCILLIN™ FL)−(BOCILLIN™ FL)). Second, gel electrophoresis and fluorescence detection were used to measure BOCILLIN™ FL labeling of PBP4 treated with the known PBP4 inhibitor cefoxitin (positive control), kanamycin (negative control) or 9314848 (test compound). Briefly, 1 μM of recombinant PBP4 was mixed with 0, 50, 500, 2000, or 5000 μM 9314848 or control antibiotic in 50 mM phosphate buffer (pH 7.4) and incubated at 37° C. for 30 minutes. Next 40 μM of BOCILLIN™ FL was added to the reaction mixture and incubated for an additional 30 minutes at 37° C. Reactions were stopped by adding 5×SDS-PAGE gel loading dye, heated at 100° C. for 3 minutes and separated by electrophoresis in 12% SDS-PAGE (2 h, 120 Volts). BOCILLIN™ FL labeled PBP4 was imaged at λ=365 nm using a BioRad© Gel Doc EZ™ Imaging system and the gel was then subsequently stained with Bio-safe Coomassie Brilliant Blue stain (BioRad©, Hercules, CA, USA) to measure the amount of protein present in each reaction condition and analyzed using NIH-ImageJ software. The percent BOCILLIN™ FL binding was calculated by first normalizing the protein present in each reaction condition to that of untreated control and subsequently applying each reaction's protein normalization factor to each reaction's fluorescent signal. The percentage BOCILLIN™ FL binding inhibition was then calculated as the normalized band intensity of antibiotic/compound treated sample as compared to control sample (PBP4+BOCILLIN™ FL in the absence of compound).
# To more directly evaluate whether 9314848 is likely to affect PBP4 function, the compound's ability to bind recombinant PBP4 was measured using BOCILLIN™ FL fluorescence polarization displacement assays. The premise for the assay is that the fluorescence polarization of the fluorescently labeled β-lactam, penicillin V (BOCILLIN™ FL), will increase upon binding to its cognate target (i.e., PBP4). Further, compounds that bind PBP4 and inhibit its function would impede BOCILLIN™ FL binding thereby allowing assessment of the protein binding affinity of 9314848 using a simple fluorescence reduction assay.
# MRSA strain AH-1263 = test: Broth microdilution antibiotic potentiation; format: cell-based, Staphylococcus aureus; settings: AH-1263
# Summary of the method: (§1)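 MRSA grown 6 h in CAMHB, subcultured to 5×10^5 CFU/mL, then adjuvant compound added from DMSO stock. Antibiotic serially 2-fold diluted across plate in adjuvant-containing culture, antibiotic-alone as control; plates incubated at 37° C.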
# MRSA strain AH-2204 = test: Broth microdilution antibiotic potentiation; format: cell-based, Staphylococcus aureus; settings: AH-2204
# Summary of the method: as §1
# [2] = test system: MRSA strain ATCC BAA-1556; test: Broth microdilution antibiotic potentiation; format: cell-based, Staphylococcus aureus; settings: ATCC BAA-1556
# Summary of the method: as §1
# [3] = Ex. 3 compound at 60 μM (18 and 19 at 30 μM)
compound,measurement,setting,value
O=C(Nc1ccc2[nH]c(-c3cccs3)nc2c1)c1ccco1 [Compound 1 (7729837)],"Cmpd (putative PBP4 inhibitor) MIC, Alone",strain CRBΔpbp4,400 µM
same,Fold-decrease in ceftobiprole resistance in combination,strain CRBΔpbp4,0
same,"Cmpd concentration, Combination",strain CRBΔpbp4; with ceftobiprole,50 µM
same,"BPR (ceftobiprole) MIC, Combination",strain CRBΔpbp4; with putative PBP4 inhibitor,0.25 µg/mL
same,"Percentage Bocillin Displacement (%), PBP4 binding",[1],25.66% and 25.66 ± 18.09%
same,Ampicillin MIC,MRSA strain AH-1263; [3],8 µg/mL
same,Ampicillin MIC fold reduction,MRSA strain AH-1263; [3],(2)
same,Cefotaxime MIC,MRSA strain AH-1263; [3],8 µg/mL
same,Cefotaxime MIC fold reduction,MRSA strain AH-1263; [3],(4)
same,Oxacillin MIC,MRSA strain AH-1263; [3],1 µg/mL
same,Amoxicillin MIC,MRSA strain AH-1263; with Ex. 3 compound,8 µg/mL
same,Cephalothin MIC,MRSA strain AH-1263; with Ex. 3 compound,1 µg/mL
same,Cephalothin MIC fold reduction,MRSA strain AH-1263; with Ex. 3 compound,32
same,Penicillin G MIC,MRSA strain AH-1263; with Ex. 3 compound,4 µg/mL
same,Penicillin G MIC fold reduction,MRSA strain AH-1263; with Ex. 3 compound,2
same,Piperacillin MIC,MRSA strain AH-1263; with Ex. 3 compound,8 µg/mL
same,Piperacillin MIC fold reduction,MRSA strain AH-1263; with Ex. 3 compound,2
same,Ampicillin MIC,MRSA strain AH-2204; [3],2 µg/mL
same,Cefotaxime MIC,MRSA strain AH-2204; [3],8 µg/mL
same,Cefotaxime MIC fold reduction,MRSA strain AH-2204; [3],(2)
same,Oxacillin MIC,MRSA strain AH-2204; [3],0.5 µg/mL and 0.6 µg/mL
same,Amoxicillin MIC,MRSA strain AH-2204; with Ex. 3 compound,2 µg/mL
same,Cephalothin MIC,MRSA strain AH-2204; with Ex. 3 compound,0.125 µg/mL
same,Cephalothin MIC fold reduction,MRSA strain AH-2204; with Ex. 3 compound,32
same,Penicillin G MIC,MRSA strain AH-2204; with Ex. 3 compound,1 µg/mL
same,Piperacillin MIC,MRSA strain AH-2204; with Ex. 3 compound,4 µg/mL
same,Ampicillin MIC,[2]; [3],8 µg/mL
same,Ampicillin MIC fold reduction,[2]; [3],(2)
same,Cefotaxime MIC,[2]; [3],16 µg/mL
same,Cefotaxime MIC fold reduction,[2]; [3],(2)
same,Oxacillin MIC,[2]; [3],2 µg/mL
same,Amoxicillin MIC,[2]; with Ex. 3 compound,8 µg/mL
same,Cephalothin MIC,[2]; with Ex. 3 compound,1 µg/mL
same,Cephalothin MIC fold reduction,[2]; with Ex. 3 compound,16
same,Penicillin G MIC,[2]; with Ex. 3 compound,2 µg/mL
same,Piperacillin MIC,[2]; with Ex. 3 compound,8 µg/mL
same,Piperacillin MIC fold reduction,[2]; with Ex. 3 compound,2
